Experiments:
[1] = tested on: Renin mRNA in As4.1 cells; experiment: Renin mRNA in As4.1 cells transfected with pcDNA-hVDR (real-time RT-PCR); format: cell-based
Protocol: As4.1 cells (ATCC, Manassas, Va.) were cultured in Dulbecco's Modified Eagle Medium DMEM (commercially available from Invitrogen, Carlsbad, Calif.) with 10% fetal bovine serum at 37° C. in a humidified 5% CO2-95% air atmosphere. C3;ells were transfected with the pcDNA-hVDR plasmid (provided by Yan Chun Li, University of Chicago) by LIPOFECTAMINE™ 2000 (Invitrogen, Carlsbad, Calif.). siRNA was transfected with the pcDNA-hVDR plasmid by LIPOFECTAMINE™ 2000 according to the manufacturer's protocol. Twenty-four hours after transfection, cells were treated with test agents.
Real-time reverse transcription-PCR was performed with a MyiQ Real-time PCR Detection System (commercially available from BioRad, Hercules, Calif.). […] TaqMan™ probes that were 5′ labeled with the reporter 6-carboxyfluorescein (FAM) and 3′ labeled with the quencher tetramethylrhodamine (TAMRA) were used and the primer and probe sets were obtained from Applied Biosystems (Foster City, Calif.). Temperature conditions consisted of a step of 5 minutes at 95° C., followed by 45 cycles of 60° C. for 1 minute and 95° C. for 15 seconds. Data was collected during each extension phase of the PCR reaction and analyzed with the accompanying software package (BioRad, Hercules, Calif.). Threshold cycles were determined for each gene.

[2] = tested on: PAI-1 mRNA in human coronary artery smooth muscle cells (CASMC); experiment: PAI-1 mRNA in CASMC; format: cell-based; details: Homo sapiens
Protocol: Primary culture of human coronary artery smooth muscle cells (CASMC) (commercially available from Cambrex, Walkersville, Md.) were grown in smooth muscle growth medium SmGM-2 (commercially available from Lonza Bioscience) containing 5.5 mM glucose, 5% FBS, 50 μg/ml gentamicin, 50 ng/ml amphotericin-B, 5 μg/ml insulin, 2 ng/ml human recombinant fibroblast growth factor (hFGF), and 0.5 ng/ml human recombinant epidermal growth factor (hEGF) at 37° C. in a humidified 5% CO2-95% air atmosphere. Cells were grown to >80% confluence and used within five passages.
Real-time reverse transcription-PCR was performed with a MyiQ Real-Time PCR Detection System (BioRad, Hercules, Calif.). Each sample has a final volume of 25 μl containing 100 ng of cDNA, […] each of the forward and reverse PCR primers and […] of the TaqMan™ probe for the gene of interest (Applied Biosystems, Foster City, Calif.). Temperature conditions consisted of a step of 5 minutes at 95° C., followed by 40 cycles of 60° C. for 1 minute and 95° C. for 15 seconds. Data was collected during each extension phase of the PCR reaction and analyzed with the software package (BioRad, Hercules, Calif.). Threshold cycles were determined for each gene. […]

Male, C57BL6, mice = experiment: Normal Mouse Calcemia Model; format: in vivo
Protocol: Male, C57BL6, mice were obtained from Jackson Laboratories. The mice were habituated for four days while maintained on a normal diet (D10001, Research Diets Inc.). Treatment was initiated with vehicle (20% ethanol/30% propylene glycol/50% water, 0.05 mL, s.c.) or test agent administered over a three log dose range. The animals were dosed once daily for 3 days. Twenty-four hours after the last dose, animals were anesthetized with ketamine/xylazine (100/18 mg/kg) and bled by cardiac puncture for measurement of PTH and other end points.
Measurement of PTH and minerals: Calcium (Ca), serum phosphorus (Pi), creatinine and BUN were measured from serum using an Abbott Aeroset® (Abbott Laboratories, Abbott Park, Ill.). Blood ionized calcium (iCa) was determined using the i-STAT® system (Abbott Laboratories, East Windsor, N.J.). Serum PTH was measured using a mouse parathyroid hormone (PTH) EIA kit obtained from ALPCO/Immutopics, Inc. (Windham, N.H.). Selected data is shown is Table 6. The graphs in FIG. 4 give an indication of dose response. Notable is that Example 1 produced an approximately 30% reduction in PTH over at least a three log dose range without a concomitant elevation of serum calcium of greater than 1 mg/dL.
Data analysis: Mean±standard error of the mean was calculated for each group. One way ANOVA followed by a Dunnett's test was used to assess differences between vehicle and drug-treated groups. *p<0.05=significance.

5/6 nephrectomized rats = experiment: Aortic Calcification in Uremic Rats; format: in vivo, rat; details: 5/6 NX rats, at <100 μg/kg, i.p. 3 times per week for 41 Days
Protocol: 5/6 nephrectomized rats: Male Sprague-Dawley, 5/6 NX rats (˜200 g) were obtained from Charles River. The nephrectomy was performed using a standard two-step surgical ablation procedure. Beginning approximately 2 weeks post-nephrectomy, rats were maintained on a hyperphosphatemia-inducing diet (0.9% phosphorus and 0.6% calcium) for the duration of the study to induce secondary hyperparathyroidism (SHPT). After four weeks on the special diet, rats received vehicle (5% ethanol/95% propylene glycol; 0.4 mL/kg; i.p.) or test agent 3 times per week for 41 Days. On Days 0, 13, and 41 blood was collected (24 hours post-dose).
To minimize bias induced by variance in the disease state, 5/6 NX rats were assessed after 4 weeks of high phosphorus diet (prior to treatment) and the following inclusion/exclusion criteria were applied to the rats for study: • Serum creatinine=0.8-2.0 mg/dL (sham controls=0.43±0.01 mg/dL; n=20) • Exclude: serum calcium≦8.5 mg/dL (sham controls=10.05±0.05 mg/dL; n=20) • Exclude: serum phosphorus>12 mg/dL (sham controls=7.09±0.12 mg/dL; n=20) • Exclude: iPTH<400 pg/mL (sham controls=430±33 pg/mL; n=20)
Measurement of PTH and serum mineral levels: Serum PTH was measured using a rat intact PTH ELISA kit (ALPCO/lmmutopics, Inc., Windham, N.H.). Serum calcium, phosphorus, creatinine and BUN concentrations were measured using an Abbott Aeroset® (Abbott, Abbott Park, Ill.). […]

[3] = over at least a three log dose range

- IC50 [1]: 0.3 nM
- IC50 [2]: 0.01 nM
- concomitant elevation of serum calcium (Male, C57BL6, mice; [3]): ≤ 1 mg/dL
- 1 mg/dL Δ total Ca (Male, C57BL6, mice; s.c. once daily for 3 days, dose giving 1 mg/dL change in total Ca): >100 µg/kg
- effect on aortic calcification (5/6 nephrectomized rats): did not have an effect
SMILES: C=C1[C@H](O)CC(=C/C=C2\CCC[C@]3(C)[C@@H]([C@H](C)COC(=O)C(C)(C)C)CC[C@@H]23)C[C@H]1O [Example 1, (2S)-2-[(1R,3R,7E, 17β)-1,3-dihydroxy-2-methylene-9,10-secoestra-5,7-dien-17-yl]propyl pivalate]
- reduction in PTH (Male, C57BL6, mice; [3]): approximately 30%
- ED50 (Male, C57BL6, mice; sc, 72 h, s.c. once daily for 3 days, read-out: PTH ED50): 0.0105 mg/kg

Source: patent publication US8377913B2, “Vitamin D receptor activators and methods of making” (AbbVie Inc., priority 2007, dated 2013)
